Assay results reported in patent publication US4481193A, “Des-proline vasopressin antagonists” (SmithKline Beckman Corporation, priority 1984, dated 1984).
*1 amine or outer side, *2 acyl side, *3 side chain or, on linkers, in order; H or OH if unused. Where a SMILES comes first, the peptide text is derived from it. Bridges are numbered along the chain shown (N, C = ends). [ ]: non-standard residue; d: D form. X1 = O=C(CC1(S[*:2])CCCCC1)[*:1]

Experiments:
[1] = target: T1, vasopressin stimulated adenylate cyclase (Sus scrofa, UniProt P32307); experiment: Vasopressin stimulated adenylate cyclase activity, hog kidney medullary membrane; assay type: biochemical; conditions: antagonism of vasopressin stimulated adenylate cyclase, read-out: In Vitro (Pig) Ki
T1 construct: from tissue; host or cells: hog kidney medullary membranes
T1 sequence (P32307 whole entry): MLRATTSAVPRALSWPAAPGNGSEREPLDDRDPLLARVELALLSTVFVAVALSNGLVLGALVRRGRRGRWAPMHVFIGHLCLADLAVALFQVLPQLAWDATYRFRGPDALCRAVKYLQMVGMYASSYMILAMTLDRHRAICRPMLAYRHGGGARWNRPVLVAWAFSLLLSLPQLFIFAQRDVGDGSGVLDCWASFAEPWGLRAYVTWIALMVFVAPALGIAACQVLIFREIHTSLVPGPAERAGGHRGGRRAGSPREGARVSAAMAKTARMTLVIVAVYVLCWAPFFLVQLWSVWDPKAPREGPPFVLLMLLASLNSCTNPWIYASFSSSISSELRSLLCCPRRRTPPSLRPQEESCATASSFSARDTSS
Protocol: (§1) Antagonistic activity toward the natural antidiuretic hormone (anti-ADH activity) is determined, in vitro, in the medullary tissue of hog or human kidneys and, in vivo, in the hydropenic rat. The in vitro assay procedures for vasopressin stimulated adenylate cyclase activation or vasopression binding activity are described by F. Stassen et al., J. Pharmacology and Experimental Therapeutics, 223, 50-54 (1982).
In the test procedure for assay of adenylate cyclase activity, the amount of ^32 P/cAMP formed in the absence of medullary membrane is determined (blank). The blank value is substracted from all experimental data. The compound is tested for its effect on basal adenylate cyclase activity and/or on vasopressin stimulated activity. Each determination is carried out in triplicate. The Ka value is derived from a Lineweaver-Burkeplot. Rel. Vmax =(Vmax drug/Vmax vasopressin)×100. Ki =I/[Ka'/Ka)-1] where I is the concentration of the antagonist, and Ka' and Ka are the concentrations of vasopressin required to give half-maximal activity of adenylate cyclase in the presence and absence of antagonist, respectively.

[2] = target: T2, vasopressin receptors (V2 -receptors) (Sus scrofa, UniProt P32307); experiment: 3H-vasopressin binding assay, hog kidney membranes; conditions: competitive inhibition of 3H-vasopressin binding, KB = IC50/(1+L/KD), read-out: In Vitro (Pig) KB
T2 construct: from tissue; host or cells: hog kidney medullary membranes
T2 sequence (P32307 whole entry): as above
Protocol: as §1
In the test procedure for binding assays, the amount of ^3 H-vasopressin bound in the absence and in the presence of an excess of vasopressin (7.5×10^-6 M) is measured in triplicate. These values represent total and non-specific binding, respectively. […] This is the average KD value determined on 3 preparations of hog kidney membranes.

[3] = target: T3, vasopressin stimulated adenylate cyclase (Homo sapiens, UniProt P30518); experiment: Vasopressin stimulated adenylate cyclase activity, human kidney medullary tissue; assay type: biochemical; conditions: read-out: In Vitro (Human) Ki
T3 construct: from tissue; host or cells: human kidney medullary membranes
T3 sequence (P30518 whole entry): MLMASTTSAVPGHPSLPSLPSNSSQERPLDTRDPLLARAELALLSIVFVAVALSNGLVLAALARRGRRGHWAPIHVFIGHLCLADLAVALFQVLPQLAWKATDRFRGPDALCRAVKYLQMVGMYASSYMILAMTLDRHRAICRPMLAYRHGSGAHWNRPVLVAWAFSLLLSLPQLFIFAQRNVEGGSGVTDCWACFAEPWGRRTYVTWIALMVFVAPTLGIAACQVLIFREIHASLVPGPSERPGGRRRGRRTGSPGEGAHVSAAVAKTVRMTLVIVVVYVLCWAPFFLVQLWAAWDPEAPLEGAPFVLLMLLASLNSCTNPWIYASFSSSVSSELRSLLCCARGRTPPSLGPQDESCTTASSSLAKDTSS
Protocol: as §1

[4] = test system: hydropenic rat; experiment: Hydropenic rat screen (anti-ADH activity in vivo); conditions: estimated dose delivered ip which reduces Uosm from hydropenic levels to 300 mOsmoles/kg H2O; male rats
Protocol: as §1
The assay for anti-ADH activity is the hydropenic rat protocol is described below:
Food and water are removed from male rats approximately 18 hours prior to testing. Animals are housed 4 per metabolism cage. At 0 hour, the test compound is administered intraperitoneally to the test group and an equivalent volume of vehicle is administered to both control groups (fasted and non-fasted). Urine volume and osmolality are measured every hour for 4 hours. Test values are recorded as ml of urine excreted (cumulative), mEq/rat electrolyte excreted, mg/rat urea excreted, and osmolality in milli-Osmoles/kg H2 O. A tolerance test is used to determine significance. ED300 is defined as the dose of compound (μg/kg) required to lower urine osmolality to 300 m-Osmoles/kg.

Structure (SMILES) | Ki [1] [nM] | Kb [2] [nM] | Ki [3] [nM] | In Vivo (Rat) ED300 [4] [mg/kg]
CCOc1ccc(C[C@H]2NC(=O)CC3(CCCCC3)SSC[C@@H](C(=O)N[C@@H](CCCN=C(N)N)C(=O)NCC(N)=O)NC(=O)[C@H](CC(N)=O)NC(=O)[C@H](C(C)C)NC(=O)[C@H](Cc3ccccc3)NC2=O)cc1 [A] ([dY](Et)FVNCRG-NH2; linker N-5 via X1) | 2.7 | 17 | 9.8 | –
CCOc1ccc(C[C@H]2NC(=O)CC3(CCCCC3)SSC[C@@H](C(=O)N3CCC[C@H]3C(=O)N[C@@H](CCCNC(=N)N)C(=O)NCC(N)=O)NC(=O)[C@H](CC(N)=O)NC(=O)[C@H](C(C)C)NC(=O)[C@H](Cc3ccccc3)NC2=O)cc1 [B, [mercapto-β,cyclopentamethylenepropionic acid)2-(O--ethylD-tyrosine)-4-valine-8-argininevasopressin] ([dY](Et)FVNCPRG-NH2; linker N-5 via X1 (inferred); C-terminus assumed) | – | – | – | 0.011
